Results: paper PMC2917377 (Cytometry. Part A : the journal of the International …, 2009)
Blank lines part the entries; values can stand above or below the molecule they belong to. Non-standard residues stand in square brackets, D forms with d. No end group written: not given here. *: point of attachment. Nle = CCCC[C@H](N)C(=O)O; For = O=C*

Assays:
[1] = system: FPRL1; conditions: cited from earlier work
[2] = target: FPR; conditions: read-out: Kd for FPR; cited from earlier work
[3] = target: formyl peptide receptor-like 1; conditions: cited from earlier work
[4] = target: WKYMVm; assay: competition
[5] = target: T1, WKGMVm; assay: competition flow cytometry
T1 chain: WKGMV[dM]

[6] = target: T2, WKRMVm; assay: competition flow cytometry
T2 chain: WKRMV[dM]

Molecule: N-formyl -Met-Leu-Phe-Lys-fluorescein (For-MLFK(fluorescein)) [fMLFK-FITC]
Binding to FPRL1 [1]: does not bind | Kd [2]: 3 nM

Molecule: W[Nle]YM [WNleYM]
EC50 [3]: 5.34 nM

IC50 [4]: 1.8 nM | IC50 [5]: 176 nM | IC50 [6]: 705 nM
B1: FPRL1 (protein)
chain: METNFSTPLNEYEEVSYESAGYTVLRILPLVVLGVTFVLGVLGNGLVIWVAGFRMTRTVTTICYLNLALADFSFTATLPFLIVSMAMGEKWPFGWFLCKLIHIVVDINLFGSVFLIGFIALDRCICVLHPVWAQNHRTVSLAMKVIVGPWILALVLTLPVFLFLTTVTIPNGDTYCTFNFASWGGTPEERLKVAITMLTARGIIRFVIGFSLPMSIVAICYGLIAAKIHKKGMIKSSRPLRVLTAVVASFFICWFPFQLVALLGTVWLKEMLFYGKYKIIDILVNPTSSLAFFNSCLNPMLYVFVGQDFRERLIHSLPTSLERALSEDSAPTNDTAANSASPPAETELQAM
